Reference: patent publication US5110725A, “Optical probe for the cytochrome P-450 cholesterol side chain cleavage enzyme” (The United States of America as represented by the United …, priority 1991, dated 1992)

Assays:
P-450scc enzyme [1] = biological target: T1, P-450scc enzyme (Gallus gallus, UniProt O13254); assay: Spectrofluorometry of resorufin production in mitochondrial preparations from chicken granulosa and MA-10 cells; type: biochemical; conditions: for effect of inhibitor on observed resorufin fluorescence: added to steroidogenic mitochondrial preparations incubated with the probe
T1 sequence (O13254 32-508): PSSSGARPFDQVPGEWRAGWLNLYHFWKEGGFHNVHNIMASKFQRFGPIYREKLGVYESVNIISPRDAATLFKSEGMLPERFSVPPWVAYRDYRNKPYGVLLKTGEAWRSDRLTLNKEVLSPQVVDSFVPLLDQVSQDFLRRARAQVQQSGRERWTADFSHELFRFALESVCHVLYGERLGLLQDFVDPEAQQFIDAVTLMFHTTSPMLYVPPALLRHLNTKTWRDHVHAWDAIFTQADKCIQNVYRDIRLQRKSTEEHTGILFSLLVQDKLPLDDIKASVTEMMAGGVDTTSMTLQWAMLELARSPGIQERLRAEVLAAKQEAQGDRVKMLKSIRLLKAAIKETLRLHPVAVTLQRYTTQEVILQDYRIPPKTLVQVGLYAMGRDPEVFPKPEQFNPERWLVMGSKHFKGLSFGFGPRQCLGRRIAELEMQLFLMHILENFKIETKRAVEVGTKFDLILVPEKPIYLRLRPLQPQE
Method: (§1) A saturated stock solution of probe 10 was made in 95% ethanol and filtered with a 0.2 μm filter to a concentration of 100 μM. Probe 10 was added at 1:50 or 1:100 dilutions to cell or mitochondria suspensions.
(§2) Cell Preparations: Granulosa cell layers were collected separately from the 5 largest preovulatory follicles of laying hens and cells were dispersed by collagenase digestion (Endocrinology 122:651-658). The cell concentration was adjusted to 1×10^6 cells/mL in modified medium 199 (no phenol red; added 25 mM HEPES, 0.35 g/L sodium bicarbonate, 100 mg/L 1-glutamate, and 1 g/L bovine serum albumin). The MA-10 cells (Endocrinology 108:88-95) were grown in RPMI-1640 medium supplemented with 15% horse serum and used three days after plating. Cell cultures of the Chinese hamster ovary (CHO) cell line were grown in spinner flasks with Ham's F-10 medium supplemented with 15% bovine calf serum. Media were obtained from Gibco BRL (Gaithersburg, Md.) and sera were obtained from HyClone Laboratories (Logan, Utah). Except where indicated all other reagents for cell preparations were obtained from Sigma Chemical Co. (St. Louis, Mo.). Cells in suspension (1×10^6 /mL) were kept on ice prior to use and at 37° C. during all incubations with probe 10.
(§3) Spectrofluorometry: Fluorescence emission measurements were obtained on a SPEX Fluorolog-II spectrofluorometer (SPEX Industries, Inc., Edison, N.J.) fitted with a thermostatted cuvette holder and interfaced to an IBM-AT computer for data collection and processing. Resorufin fluorescence was measured from 550-700 nm (8 nm slit width) with 530 nm excitation (10 nm slit width). Spectra were background-corrected by spectral subtraction of the initial (zero) time point. Samples were incubated at 37° C. during the experiment.

granulosa or MA-10 cells = assay: Progesterone radioimmunoassay after incubation of granulosa or MA-10 cells with the probe; type: cell-based; conditions: 3-5 h incubation, 1-2 μM probe
Method: as §2, with “Media were obtained from Gibco BRL (Gaithersburg, Md.) and sera were obtained from HyClone Laboratories (Logan, Utah). Except where indicated all other reagents for cell preparations were obtained from Sigma Chemical Co. (St. Louis, Mo.). Cells in suspension (1×10^6 /mL) were kept on ice prior to use and at 37° C. during all incubations with probe 10.” left out
To confirm cellular metabolism, both MA-10 and granulosa cell suspensions were incubated with varying concentrations of the probe substrate. Fluorescence emission was monitored at discrete times from 0-4 h. […] Based on the amount of fluorescence in a typical cell incubation the cumulative conversion of the probe was in the concentration range of 100-300 pM. After long (3-5 h) incubations of granulosa or MA-10 cells with a high concentration (1-2 μM) of the P-450scc probe, a two-fold accumulation of progesterone over the background progesterone content of the cells was measured by specific progesterone radioimmunoassay (Endocrine Sciences, Tarzana, Calif.).

granulosa cells [2] = assay: Fourier transform flow cytometry of substrate metabolism in individual granulosa cells; type: cell-based, laying hens
Method: as §2, with “Except where indicated all other reagents for cell preparations were obtained from Sigma Chemical Co. (St. Louis, Mo.). Cells in suspension (1×10^6 /mL) were kept on ice prior to use and at 37° C. during all incubations with probe 10.” left out
The Fourier transform flow cytometer was used to track the metabolism of the fluorogenic substrate in individual granulosa cells. […] Using this instrument, cellular fluorescence of the substrate is resolved from the cellular fluorescence of the product, resorufin anion, based on their unique spectral characteristics during the uptake and metabolism of the P-450scc probe.
(§4) By monitoring spectral changes in the cellular fluorescence at discrete time points from 30 min to 5 h with the FTCS-1 an increased metabolism of the substrate to the product resorufin was observed. […]

P-450scc = assay: Selectivity of the probe in intact mitochondria and cells; type: cell-based
Method: as §1

[3] = type: physicochemical; conditions: 95% ethanol
Method: as §1

[4] = system: nonsteroidogenic CHO cells; assay: Fourier transform flow cytometry with nonsteroidogenic CHO cells; type: cell-based, Chinese hamster
Method: as §2
A single argon laser tuned to 514 nm was used to excite both the substrate and product. […]
as §4

granulosa cells [5] = assay: Conventional two-laser flow cytometric analysis of P-450scc activity in granulosa cells; type: cell-based, laying hens; conditions: 37° C., 5 min to 2 h
Method: as §2
Uptake of the substrate (green fluorescence) plateaued at 30 minutes, presumably as the cells equilibrated with the P-450scc probe in solution.

[6] = system: nonsteroidogenic CHO cells; assay: Spectrofluorometry with mitochondrial preparations from nonsteroidogenic CHO cells; type: biochemical, Chinese hamster
Method: as §1
as §2, with “Except where indicated all other reagents for cell preparations were obtained from Sigma Chemical Co. (St. Louis, Mo.). Cells in suspension (1×10^6 /mL) were kept on ice prior to use and at 37° C. during all incubations with probe 10.” left out
as §3, with “Spectra were background-corrected by spectral subtraction of the initial (zero) time point. Samples were incubated at 37° C. during the experiment.” left out

P-450scc enzyme [7] = assay: Spectrofluorometry of probe metabolism in MA-10 and granulosa cell suspensions; type: cell-based
Method: as §1
Cell Preparations: Granulosa cell layers were collected separately from the 5 largest preovulatory follicles of laying hens and cells were dispersed by collagenase digestion (Endocrinology 122:651-658). The cell concentration was adjusted to 1×10^6 cells/mL in modified medium 199 (no phenol red; added 25 mM HEPES, 0.35 g/L sodium bicarbonate, 100 mg/L 1-glutamate, and 1 g/L bovine serum albumin). […]
as §3, with “Spectra were background-corrected by spectral subtraction of the initial (zero) time point. Samples were incubated at 37° C. during the experiment.” left out
To confirm cellular metabolism, both MA-10 and granulosa cell suspensions were incubated with varying concentrations of the probe substrate. Fluorescence emission was monitored at discrete times from 0-4 h. […] Based on the amount of fluorescence in a typical cell incubation the cumulative conversion of the probe was in the concentration range of 100-300 pM. […]

[8] = Fluorescence quantum efficiency relative to the resorufin anion; type: physicochemical; conditions: resorufin conjugated at C-22
Description: Referring now to FIG. 2, the P-450scc probe 10 is a cholene-based steroid covalently conjugated at the C-22 position to resorufin. As a result of this conjugation the resorufin fluorescence is shifted and has a 40-fold lower quantum efficiency than the resorufin anion. Specificity of probe 10 for the P-450scc enzyme is achieved by incorporating known structural and stereochemical features to the cholene-ring for enzyme recognition. Generation of a fluorescent signal is obtained by release of the resorufin moiety 16 by the side chain cleavage enzyme.
Resorufin (7-hydroxy-3H-phenoxazin-3-one) was chosen as a fluorogenic reporter because of its advantageous spectral properties and its modest size. […] Presumably, metabolism of a resorufin ether 10 by P-450scc proceeds by hydroxylation at the C-1 position of the ether side chain, to yield a resorufin hemiacetal that undergoes cleavage to afford the highly fluorescent resorufin anion. The fluorescence signal generated by the formation of resorufin anion is a quantitative indicator of enzyme activity.

With `CC(=O)N1CCN(c2ccc(OCC3COC(Cn4ccnc4)(c4ccc(Cl)cc4Cl)O3)cc2)CC1` (stereo not shown) [ketoconazole] as the compound, how does the “effect of inhibitor on observed resorufin fluorescence” value (P-450scc enzyme [1]) read?
The value was “attenuated the observed fluorescence”.

For `CCC1(c2ccc(N)cc2)CCC(=O)NC1=O` (stereo not shown) [aminoglutethimide], which “effect of inhibitor on observed resorufin fluorescence” value (P-450scc enzyme [1]) is on record?
Its value is “attenuated the observed fluorescence”.

With `C[C@H](COc1ccc2nc3ccc(=O)cc-3oc2c1)[C@H]1CC[C@H]2[C@@H]3CC=C4C[C@@H](O)CC[C@]4(C)[C@H]3CC[C@]12C` [probe 10, 22-phenoxazonoxy-5-cholene-3β-ol] as the compound, how does the “accumulation of progesterone over background progesterone content of the cells” value (granulosa or MA-10 cells) read?
The value was “two-fold”.

What about the “average ratio of the two fluorescent components (substrate and resorufin) over time” value (granulosa cells [2]; 30 min to 5 h) of the same compound?
The value was “linear increase”.

And the “alignment of the cell distribution with the product resorufin” value (granulosa cells [2]; after 5 h)?
Its value is about 100%.

And the selectivity (P-450scc)?
The selectivity was “selective for P-450scc activity”.

And the “concentration of saturated stock solution” value [3]?
Its value is 100 µM.

And the cellular fluorescence spectrum ([4]; CHO cells, 3 h incubation)?
The cellular fluorescence spectrum was “remained primarily consistent with the substrate spectrum”.

And the “metabolism of the substrate to resorufin” value ([4]; nonsteroidogenic CHO cells)?
The value was “no evidence of significant metabolism”.

And the resorufin production (P-450scc enzyme [1]; steroidogenic mitochondria (chicken granulosa, MA-10), 30 min to 5 h, substrate 0.01 to 2 μM)?
Its resorufin production is “resorufin production was observed”.

What about the “product (red fluorescence) in cells during incubation” value (granulosa cells [5]) of the same compound?
Its value is “continued to increase”.

What about the “time at which uptake of the substrate (green fluorescence) plateaued” value (granulosa cells [5]) of the same compound?
The value was 30 min.

And the production of fluorescence [6]?
Its production of fluorescence is “no production of fluorescence”.

And the “resorufin fluorescence over time” value (P-450scc enzyme [7]; MA-10 and granulosa cell suspensions, 0-4 h, varying probe concentrations)?
The value was “linear increase in resorufin fluorescence”.

And the “cumulative conversion of the probe” value (P-450scc enzyme [7]; typical cell incubation, based on amount of fluorescence)?
The value was 100 to 300 pM.

What about the “quantum efficiency lower than the resorufin anion” value [8] of the same compound?
Its value is 40 fold.
